Experimental data: patent US20040048350A1 (priority 2001, published 2004)
pKi: −log10 of the molar value.

How the values were obtained:
E. coli RNAP holoenzyme = E. coli RNAP holoenzyme (Escherichia coli, UniProt P0A8V2); experiment: Transcription assay, T7A1 promoter template, rifampicin inhibition of E. coli RNAP holoenzyme; assay type: biochemical; details: CpA primer, 37° C., read-out: Ki (estimated from the rifampicin concentration where the production of long transcripts was inhibited by 50%)
Source text: (§1) FIG. 2a depicts autoradiographs showing the radioactive RNA produced by Taq (lanes 1-7) and E. coli (lanes 8-13) RNAP holoenzymes transcribing a template containing the T7 A1 promoter and the tR2 terminator, analyzed on a 15% polyacrylamide gel and quantitated by phosphorimagery. In the absence of rifampicin (lanes 1 and 8), the major RNA products from each RNAP correspond to a trimeric abortive product (CpApU), a 105 nucleotide terminated transcript (Term), and a 127 nucleotide runoff transcript (Run off). Lanes 2-7 and 9-13 show the effects of increasing concentrations of rifampicin. […] Rif-nucleotide compounds (Rif-(CH2)n-Ap) with different linker lengths, n (indicated above each lane) were bound to RNAP, then extended in a specific transcription reaction with α-[^32P]UTP by the RNAP catalytic activity. The products were analyzed on a 23% polyacrylamide gel, visualized by autoradiography, and quantitated by phosphorimagery.
(§2) The transcription assay comparing rifampicin inhibition of E.coli and Taq RNAPs (FIG. 2a) was performed as previously described [Nudler et al., Science 265:793-796 (1994)]. Briefly, 0.1 pmol of purified Taq core RNAP [Zhang et al., Cell 98:811-824 (1999); U.S. Ser. No. 09/396,651, Filed Sep. […] Radioactive RNA products were analyzed on a 15% polyacrylamide sequencing gel.

Taq RNAP holoenzyme = biological target: T1, Taq RNAP holoenzyme (Thermus aquaticus, UniProt Q9KWU7); experiment: Transcription assay, T7A1 promoter template, rifampicin inhibition of Taq RNAP holoenzyme; assay type: biochemical; details: CpA primer, 37° C., read-out: Ki (estimated from the rifampicin concentration where the production of long transcripts was inhibited by 50%)
T1 construct: Taq core RNAP purified from Taq cells; made in house; host or cells: core: purified natively from Thermus aquaticus cells; σA: recombinant in E. coli
Source text: as §1, §2

## CO[C@H]1/C=C/O[C@@]2(C)Oc3c(C)c(O)c4c(O)c(c(/C=N/N5CCN(C)CC5)c(O)c4c3C2=O)NC(=O)/C(C)=C\C=C\[C@H](C)[C@H](O)[C@@H](C)[C@@H](O)[C@@H](C)[C@H](OC(C)=O)[C@@H]1C [rifampicin]
E. coli RNAP holoenzyme
  pKi: ~7.00
Taq RNAP holoenzyme
  pKi: ~5.00
